Measured values from US7541156B1, “Method of identifying antinociceptive compounds using protease activated receptor-2” (priority 2000, dated 2009).
No end group written: not given here.

Tests used:
[1] = system: cultured adult rat thoracic DRG neurons; assay: CGRP release assay in cultured DRG neurons; type: cell-based; conditions: 10 min pretreatment with peptide 10 μM, mean of wells, three experiments
Protocol: Cell Culture. Primary cultures of rat DRG neurons were prepared from male adult Sprague Dawley rats (200-250 gm). Following enzymatic treatment and dissociation, neurons were spun through a percoll cushion (Hofbauer et al. 1998) and were plated at a density of 10,000-20,000 neurons/well of a 48 well tissue culture plate. Cultures were maintained in DME+10% FCS supplemented with penicillin/streptomycin, 150 μM uridine and 50 μM 5-fluoro-2-deoxyuridine (Nguyen et al. 1999). NGF (murine, recombinant, 2.5S; Promega, Madison, Wis.) was used at 50 ng/ml. Neurons were treated for five days before release experiments or Calcium-imaging studies were performed.
CGRP release assay. Immunoreactive calcitonin gene-related peptide (IR-CGRP) release from DRG cultures was performed as described by Hingtgen et al. (1995). Briefly, neuron cultures were washed with Release Buffer (RB) (25 mM Hepes, pH 7.4, 135 mM NaCl, 3.5 mM KCl, 2.5 mM CaCl2, 1 mM MgCl2, 3.3 mM Glucose, 0.1% BSA, 1 μM phosphoamidon), and were incubated for 10 min at 37° C. in RB plus 0.1% ethanol (Capsaicin vehicle) to measure basal CGRP release. Fresh RB containing the appropriate concentration of activating peptide (AcPep) or control peptide (CoPep) was added for an additional 10 minutes. Peptide treatment was followed by a 10 minute incubation with an appropriate dose of Capsaicin or KCl. IR-CGRP released by neurons was measured by ELISA. Activating peptide and control peptide were prepared by standard solid phase synthesis procedures by the UTMB Core Protein Facility.
CGRP Quantification. CGRP was quantified in a standard sandwich ELISA. In brief, 96-well “U” bottom microtiter ELISA plates (Dynex, Chantilly, Va.) were coated with affinity purified polyclonal rabbit antibody to rat CGRP (Peninsula Labs, Belmont, Calif.) at 3 μg/ml in 0.125M borate buffered saline (pH 8.1) (100 μl/well). The plates were incubated overnight at 37° C. The next day, the plates were washed three times with saline containing 0.05% Tween-20. Purified rat CGRP (Peninsula Labs) was used at a previously standardized concentration range of 25-1 ng/ml in a four-fold dilution to generate a standard curve. An equal volume of the sample was added in duplicate to a seventy-five μl/well of Tween-PBS (pH 7.1) and the plates were incubated for two hours on a shaker at room temperature. The plates were washed 3 times with Tween-PBS and 100 μl/well (0.2 mg/ml; 1:500 dilution) of in-house biotinylated, rabbit anti rat CGRP IgG (Peninsula Labs) was applied and incubated for two hours at room temperature. After three washes 150 μl of 1:1000 diluted streptavidine-horseradish peroxidase conjugate (Zymed, San Fransisco, Calif.) was added to each well and the plates were incubated for 90 min at room temperature. One-hundred-fifty μl/well of the substrate ortho-phenylene diamine dihydrochloride (Sigma Chemicals, St. Louis, Mo.) 0.4 mg/ml in citrate buffer (pH 4.9) was added after plates were washed three more times. Forty μl/100 ml of 30% H2O2 was added fresh to the citrate buffer just before adding to the wells to activate the coloring reaction. The reaction was stopped with 5N H2SO4 (50 μl/well) and the plates were read at 490 nm in an automated ELISA reader (Bio-Tek Instruments, Inc., Winooski, VE). The OD values were plotted against the CGRP standard curve and CGRP immunoreactivity was quantified using the appropriate formula and expressed as nanogram/ml.
Statistics. Release data are presented as the mean± standard error of the mean (SEM) of wells from three separate experiments. To compare the effects of activating peptide and control peptide on subsequent evoked release, an overall test based on the analysis of variance was performed (ANOVA). […] Intraductal injection studies were analyzed using a repeated measure ANOVA and individual means were compared using a Newman-Keuls multiple comparison test. Significance levels were set at p<0.05. […]

[2] = system: pancreatic afferent neurons / spinal segments T8-T10; assay: c-FOS expression in spinal cord segments after pancreatic intraductal injection; type: in vivo, rat; conditions: peptide 100 μM intraductal, followed 30 min later by Capsaicin 0.5 mg/kg; 2.5 hours
Protocol: Intraductal (pancreatic duct) injection. To administer the necessary peptides directly into the rat pancreatic duct we followed a modified protocol, previously described by Kim et al. (1996). In brief, rats were anesthetized i.p. with nembutal sodium (Abbot Laboratories, Chicago, Ill.) (50 mg/kg body weight). The peritoneum was incised to expose the duodenum and the duodenal loop was pulled out. The pancreatic duct entering the duodenum was identified under dissecting microscope and a small niche was made into the duct with a 30-gauge needle. A polyethylene 10 tubing (0.61 mm outer diameter) (Becton Dickinson and Company, Franklin Lakes, N.J.) was guided into the duct and tied to secure its position. The common bile duct was ligated close to the liver to prevent entry of the injected substance into the liver. Similarly the duct was ligated near its entry into the duodenum. The position of the tube into the pancreatic duct was confirmed by freely flowing bile through the tubing. […] Thirty minutes later Capsaicin 0.5 mg/kg (total volume 500 μl) or vehicle (1×PBS, 10% ETOH, 1% Tween) was injected to half of the AcPep or CoPep injected rats. Three rats were included in each treatment group (n=3 for number of experiments). The tubing was carefully removed and bile flow from the liver into the duodenum was re-established. The abdominal cavity was closed with sutures. Rats were sacrificed 2.5 hrs after the initial injection.
C-fos staining. Rats were anesthetized with sodium pentobarbital (50 mg/kg i.p.) and perfused with 200 mls PBS followed by 500 mls ice-cold freshly prepared 4% paraformaldehyde in PBS. Spinal cord (level T5-T13) was removed, post-fixed in 4% paraformaldehyde for 18 hrs at 4° C. and placed in PBS (pH 7.4) containing 30% sucrose for 24 hrs at 4° C. Frozen sections (40 μm) were cut on a cryostat and stored as floating sections in PBS at 4° C. Every third section was stained for c-fos with a rabbit polyclonal serum, 1:1000 dilution, (c-fos, Ab-5, Oncogene Research Products) utilizing manufacturer's protocol. Antibody staining was visualized using a biotinylated secondary antisera and Vectastain ABC peroxidase kit with DAB as substrate. Sections were mounted on Superfrost Plus slides (VWR Scientific, West Chester, Pa.) and dehydrated. The number of c-FOS immunoreactive (IR) neurons were counted in 10 randomly chosen sections per segment under brightfield illumination and then averaged.
Statistics. Release data are presented as the mean± standard error of the mean (SEM) of wells from three separate experiments. […] Intraductal injection studies were analyzed using a repeated measure ANOVA and individual means were compared using a Newman-Keuls multiple comparison test. […]

mouse Par2 = target: T1, mouse Par2 (Mus musculus, UniProt P55086); conditions: expressed in frog oocytes; cited from earlier work
T1 construct: host or cells: frog oocytes
T1 sequence (P55086 26-399): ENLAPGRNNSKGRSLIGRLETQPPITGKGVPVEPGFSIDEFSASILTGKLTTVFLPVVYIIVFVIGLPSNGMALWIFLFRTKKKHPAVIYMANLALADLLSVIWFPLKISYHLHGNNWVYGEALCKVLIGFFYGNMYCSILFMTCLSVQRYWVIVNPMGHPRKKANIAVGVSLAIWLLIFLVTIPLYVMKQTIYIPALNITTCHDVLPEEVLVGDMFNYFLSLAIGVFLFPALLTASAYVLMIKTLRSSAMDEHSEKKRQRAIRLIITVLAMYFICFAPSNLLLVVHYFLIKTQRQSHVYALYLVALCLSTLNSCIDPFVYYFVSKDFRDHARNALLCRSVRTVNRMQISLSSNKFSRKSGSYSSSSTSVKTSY

[3] = target: T2, protease activated receptor-2 (PAR-2) of adult rat thoracic dorsal root ganglion neurons (rat, UniProt Q63645 37-397); assay: cell-based or functional assay
T2 sequence (looked up): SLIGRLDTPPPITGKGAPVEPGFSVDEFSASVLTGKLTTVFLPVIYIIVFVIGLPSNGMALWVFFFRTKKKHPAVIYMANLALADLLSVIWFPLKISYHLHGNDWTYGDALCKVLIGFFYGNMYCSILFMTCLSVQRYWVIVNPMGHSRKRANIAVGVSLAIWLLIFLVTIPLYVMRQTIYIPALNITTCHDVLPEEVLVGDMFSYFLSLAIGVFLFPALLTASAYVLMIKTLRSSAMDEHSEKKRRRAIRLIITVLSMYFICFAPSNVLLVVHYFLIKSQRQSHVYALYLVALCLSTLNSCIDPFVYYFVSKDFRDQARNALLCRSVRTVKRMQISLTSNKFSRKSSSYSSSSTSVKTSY

Molecule: RLGILS-amide (RLGILS-NH2) [CoPep]
- CGRP release induced by Capsaicin (50 nM) ([1]; then Capsaicin 50 nM for 10 min in presence of peptide): 4.77 ng/mL
- CGRP release induced by KCl (70 mM) ([1]; then KCl 70 mM for 10 min in presence of peptide): 1.8 ng/mL
- Capsaicin-evoked c-FOS expression in segments T8-T10 [2]: as strong a stimulant as AcPep alone

Molecule: thrombin
- concentration without receptor activation (mouse Par2): > 100 nM

Molecule: SLIGRL [PAR-2 activating peptide (AcPep)]
- augmentation of Capsaicin-evoked CGRP release (multiple of the basal release), AcPep 10 µM [3]: ~2 fold
- augmentation of KCl-evoked CGRP release (multiple of the basal release), AcPep 10 µM [3]: 1.5 fold
